The values below come from patent US7888360B2, “Pyridine and pyrimidine derivatives as inhibitors of histone deacetylase” (Janssen Pharmaceutica N.V., priority 2006, dated 2011).

Series [1] addresses histone deacetylase (HeLa nuclear extracts). Put plainly: In vitro assay for inhibition of histone deacetylase (Fluor de Lys, HeLa nuclear extracts). Format: biochemical. Also noted: key: pIC50 = negative log of IC50. To be noted: Fluor de Lys substrate. The text has this:
The HDAC Fluorescent Activity Assay/Drug Discovery Kit of Biomol (cat. No: AK-500-0001) was used. The HDAC Fluorescent Activity Assay is based on the Fluor de Lys (Fluorogenic Histone deAcetylase Lysyl) substrate and developer combination. The Fluor de Lys substrate, comprises an acetylated lysine side chain. Deacetylation of the substrate sensitizes the substrate so that, in the second step, treatment with the Fluor de Lys developer produces a fluorophore.
HeLa nuclear extracts (supplier: Biomol) were incubated at 60 μg/ml with 75 μM of substrate. The Fluor de Lys substrate was added in a buffer containing 25 mM Tris, 137 mM NaCl, 2.7 mM KCl and 1 mM MgCl2.6H2O at pH 7.4. After 30 min, 1 volume of the developer was added. The fluorophore was excited with 355 nm light and the emitted light (450 nm) was be detected on a fluorometric plate reader.
For each experiment, controls (containing HeLa nuclear extract and buffer), a blank incubation (containing buffer but no HeLa nuclear extract) and samples (containing compound dissolved in DMSO and further diluted in buffer and HeLa nuclear extract) were run in parallel. In first instance, compounds were tested at a concentration of 10^−5M. […] All sample were tested 4 times. In each test the blank value was subtracted from both the control and the sample values. The control sample represented 100% of substrate deactylation. For each sample the fluorescence was expressed as a percentage of the mean value of the controls. […] Herein the effects of test compounds are expressed as pIC50 (the negative log value of the IC50-value) (see Table F-2).

A short description of series [2]: Solubility C.3.c (chemiluminescent nitrogen detector). Format: physicochemical. To be noted: aqueous buffer; pH = 2.3; read-out: Solubility C.3.c. pH = 2.3 mg/ml. The source says: The solubility of a compound, at different pH's, can also be measured with the use of a chemiluminescent nitrogen detector (see Table F-2).
Series [3] in a line: Kinetic solubility in aqueous media C.3.b (BD Gentest Solubility Scanner). Type of series: physicochemical. To be noted: aqueous buffer. The protocol: DMSO-stock solutions from 5000-9.8 μM (1/2 dilutions) are made in DMSO in a 96 well stock solution plate (200 μl per well). After each dilution the samples are mixed. Aliquots of these DMSO solutions (2 μl) are then transferred into 2 other 96 well buffer plates, containing 200 μl per well aqueous buffer. Each of the buffer plates contains either aqueous buffer pH 7.4 or aqueous buffer pH 4.0. After the last dilution the buffer plates are mixed and the samples are stabilized at room temperature for ½ hour. Dilution is done in duplicate for each compound to exclude occasional errors. Mixtures are then scanned in the BD Gentest Solubility Scanner for the occurrence of precipitation. Based on the absence/presence of precipitate in the mixtures the kinetic solubility is calculated by interpolation. Ranking is performed into the 3 classes. […] (see Table F-2).

Assay in series [4]: not given
The source holds these as a separate data set.

The subject of series [5] is A2780 ovarian carcinoma cells. Put plainly: Antiproliferative activity on A2780 cells (MTT). Format: cell-based, human. To be noted: four days of incubation; for IC50: Homo sapiens, A2780, 96 h, read-out: Cellular activity pIC50 C.2. (converted). The method, then: All compounds tested were dissolved in DMSO and further dilutions were made in culture medium. Final DMSO concentrations never exceeded 0.1% (v/v) in cell proliferation assays. Controls contained A2780 cells and DMSO without compound and blanks contained DMSO but no cells. MTT was dissolved at 5 mg/ml in PBS. A glycine buffer comprised of 0.1 M glycine and 0.1 M NaCl buffered to pH 10.5 with NaOH (1 N) was prepared (all reagents were from Merck).
The human A2780 ovarian carcinoma cells (a kind gift from Dr. T. C. Hamilton [Fox Chase Cancer Centre, Pa., USA]) were cultured in RPMI 1640 medium supplemented with 2 mM L-glutamine, 50 μg/ml gentamicin and 10% fetal calf serum. Cells were routinely kept as monolayer cultures at 37° C. in a humidified 5% CO2 atmosphere. Cells were passaged once a week using a trypsin/EDTA solution at a split ratio of 1:40. All media and supplements were obtained from Life Technologies. Cells were free of mycoplasma contamination as determined using the Gen-Probe Mycoplasma Tissue Culture kit (supplier: BioMérieux).
Cells were seeded in NUNC™ 96-well culture plates (Supplier: Life Technologies) and allowed to adhere to the plastic overnight. Densities used for plating were 1500 cells per well in a total volume of 200 μl medium. After cell adhesion to the plates, medium was changed and drugs and/or solvents were added to a final volume of 200 μl. Following four days of incubation, medium was replaced by 200 μl fresh medium and cell density and viability was assessed using an MTT-based assay. To each well, 25 μl MTT solution was added and the cells were further incubated for 2 hours at 37° C. The medium was then carefully aspirated and the blue MTT-formazan product was solubilized by addition of 25 μl glycine buffer followed by 100 μl of DMSO. […] Within an experiment, the results for each experimental condition are the mean of 3 replicate wells. For initial screening purposes, compounds were tested at a single fixed concentration of 10^−6 M. For active compounds, the experiments were repeated to establish full concentration-response curves. For each experiment, controls (containing no drug) and a blank incubation (containing no cells or drugs) were run in parallel. The blank value was subtracted from all control and sample values. For each sample, the mean value for cell growth (in absorbance units) was expressed as a percentage of the mean value for cell growth of the control. […] Herein the effects of test compounds are expressed as pIC50 (the negative log value of the IC50-value) (see Table F-2).

The nature of series [6]: Kinetic solubility in aqueous media C.3.a (nephelometer). Format: physicochemical. To be noted: aqueous buffer, kinetic from dmso stock; phosphate citrate buffer pH 7.4, turbidity score. The method, then:
In the first dilution step, 10 μl of a concentrated stock-solution of the active compound, solubilized in DMSO (5 mM), was added to 100 μl phosphate citrate buffer pH 7.4 and mixed. In the second dilution step, an aliquot (20 μl) of the first dilution step was further dispensed in 100 μl phosphate citrate buffer pH 7.4 and mixed. Finally, in the third dilution step, a sample (20 μl) of the second dilution step was further diluted in 100 μl phosphate citrate buffer pH 7.4 and mixed. All dilutions were performed in 96-well plates. Immediately after the last dilution step the turbidity of the three consecutive dilution steps were measured with a nephelometer. Dilution was done in triplicate for each compound to exclude occasional errors. Based on the turbidity measurements a ranking is performed into 3 classes. Compounds with high solubility obtained a score of 3 and for this compounds the first dilution is clear. Compounds with medium solubility obtained a score of 2. For these compounds the first dilution is unclear and the second dilution is clear.

The test system of series [7] is p21 promoter reporter A2780 clone tumour. Put plainly: p21 induction in vivo method C.6.c (tumour fluorescence in nude mice). To be noted: dosed orally or intravenously daily during 6 days, 20-40 mpk. The method, then:
Another method tests the capacity of compounds to induce p21 as the consequence of HDAC inhibition at the cellular level. […] The reporter gene is a fluorescent protein and the expression of the reporter gene is measured as the amount of fluorescent light emitted (see example C.6.b.). The last method is an in vivo method wherein mice are used for screening the pharmaceutical activity of a compound. The above described stably transformed tumour cells can be administered to mice in an amount sufficient to effect production of a tumour. After the tumour cells had sufficient time to form a tumour, a potentially active compound can be administered to the animals and the effect of said compound on the tumour cells is evaluated by measuring the expression of the reporter gene. Incubation with pharmaceutical active compounds will result in an increase of reporter gene expression compared to the control levels (see example C.6.c.)
A selected clone was injected subcutaneous (10^7 cells/200 μl) into the flank of nude mice and a calliper measurable tumour was obtained after 12 days. […] Tumours were evaluated for fluorescence by the in-house developed Automated Whole Body Imaging System (Fluorescent stereomicroscope type Olympus® SZX12 equipped with a GFP filter and coupled to a CCD camera type JAI® CV-M90 controlled by a software package based on the IMAQ Vision Software from National Instruments®).

The mark [8] stands for this setting: kinetic from dmso stock, pH = 4, score, read-out: Solubility C.3.b pH = 4.
Where [9] appears, read: pH 7.4, kinetic from dmso stock, pH = 7, score, read-out: Solubility C.3.b. pH = 7.

Converted amounts (≈) assume the structure as drawn. Where two headings read alike, the source gives them in different places.

The term melting point denotes the temperature of the solid-liquid transition.

Take `COc1cc(N)c(Cl)cc1C(=O)NC1CCN(CCCOc2ccc(F)cc2)CC1OC` (stereo not drawn) [Cisapride]: the “% metabolism” value (human, 15 min, 5 μM) was 45%.

With `O=C(NO)c1cnc(N2CCN(C(CO)c3cccc4ccccc34)CC2)nc1` (stereo not drawn) [Compound 1], in series [1], the “Enzymatic activity pIC50 C.1.” value is recorded as 10.0. In series [2], the solubility came to 2900 µg/mL (≈ 7.37 mM). Moreover, the solubility at 0.5 h in series [3] (setting [8]) and in series [3] (setting [9]) was 10 to 50 µM (≈ 3.93 to 19.7 µg/mL) throughout. Besides, the melting point in series [4] worked out at 136 °C. The IC50 in series [5] is 100 nM.

As for `O=C(NO)c1cnc(N2CCN(C(CO)c3cc4ccccc4s3)CC2)nc1` (stereo not drawn) [Compound 2], in series [1], the “Enzymatic activity pIC50 C.1.” value was found to be 10.1. The solubility in series [2] amounted to 3250 µg/mL (≈ 8.14 mM). Moreover, the solubility at 0.5 h was ≤ 10 µM in series [3] (setting [8]) and 10 to 50 µM (≈ 3.99 to 20 µg/mL) in series [3] (setting [9]). The compound also returned a melting point in series [4] of 165 °C. In addition, the IC50 in series [5] is 15.8 nM.

On to `O=C(NO)c1cnc(N2CCN(C(CO)c3cn(S(=O)(=O)c4ccccc4)c4ccccc34)CC2)nc1` (stereo not drawn) [Compound 3], for which, in series [1], the “Enzymatic activity pIC50 C.1.” value was >9. The solubility at 0.5 h in series [3] (setting [8]) and in series [3] (setting [9]) was 10 to 50 µM (≈ 5.23 to 26.1 µg/mL) throughout. The compound also came in with a melting point in series [4] of 206 °C. In series [5], the IC50 is < 31.6 nM.

Consider `CCN(CC1CCN(c2ncc(C(=O)NO)cn2)CC1)C(CO)c1cc2ccccc2o1` (stereo not drawn) [Compound 4], for which, in series [1], the “Enzymatic activity pIC50 C.1.” value is 7.9. Further, the results for the solubility at 0.5 h in series [3] (setting [8]) and in series [3] (setting [9]) were ≤ 10 µM and 10 to 50 µM (≈ 4.4 to 22 µg/mL), respectively. This compound also came in with a melting point in series [4] of 90 °C. Also, the IC50 in series [5] is 251 nM.

On to `CC(C)(C)c1ccc(C(C(O)CO)N2CCN(c3ncc(C(=O)NO)cn3)CC2)cc1` (stereo not drawn) [Compound 5], for which the “Enzymatic activity pIC50 C.1.” value in series [1] amounted to 7.5. In addition, the solubility in series [2] was 1390 µg/mL (≈ 3.24 mM). In series [4], this compound came in with a melting point of 138 to 154 °C. In addition, the IC50 in series [5] was 100 nM.

As to `CC(C)(C)c1ccc([C@H]([C@H](O)CO)N2CCN(c3ncc(C(=O)NO)cn3)CC2)cc1` [Compound 6], the solubility in series [6] was > 455 µM; in series [2], 900 µg/mL (≈ 2.1 mM). Also, the “Enzymatic activity pIC50 C.1.” value in series [1] is recorded as 7.9. This compound had a melting point in series [4] of 163 to 171 °C. Further, the “tumour fluorescence (p21 reporter) in vivo” value in series [7] was “comparable to R306465”. Moreover, the IC50 in series [5] is 39.8 nM.

Regarding `O=C(NO)c1cnc(N2CCN(C(CO)c3ccc4ccccc4c3)CC2)nc1` (stereo not drawn) [Compound 7], the “Enzymatic activity pIC50 C.1.” value in series [1] worked out at 9.7. Moreover, the solubility at 0.5 h in series [3] (setting [8]) and in series [3] (setting [9]) was ≤ 10 µM in each case. For the same compound, the IC50 in series [5] was 20 nM.

With `O=C(NO)c1cnc(N2CCN(C(CO)c3cc4ccccc4o3)CC2)nc1` (stereo not drawn) [Compound 8], in series [1], the “Enzymatic activity pIC50 C.1.” value is 9.0. In addition, the solubility in series [2] is 2200 µg/mL (≈ 5.74 mM). The solubility at 0.5 h in series [3] (setting [8]) and in series [3] (setting [9]) was 10 to 50 µM (≈ 3.83 to 19.2 µg/mL) in each case. In addition, the IC50 in series [5] was 31.6 nM.

Turning to `O=C(NO)c1cnc(N2CCN(C(CO)c3csc4ccccc34)CC2)nc1` (stereo not drawn) [Compound 9], in series [1], the “Enzymatic activity pIC50 C.1.” value worked out at 9.8. The IC50 in series [5] is 50.1 nM.

Consider `CC(C)(C)c1ccc(C(C(O)CO)N2CCN(c3ncc(C(=O)NO)cn3)CC2)cc1` (stereo not drawn) [Compound 10], for which the solubility in series [6] is > 455 µM. Besides, the “Enzymatic activity pIC50 C.1.” value in series [1] came out at 7.0. For the same compound, the “Cellular activity pIC50 C.2.” value in series [5] was 7.1.

`CCCO` [propanol]: the “% metabolism” value (after 15 min of incubation with active microsomes, compound 5 μM) is given as 25%.
